# Patent US20230382894A1, “CCR4 ANTAGONISTS” (CHEMOCENTRYX, INC., priority 2022, published 2023)
# Target: T1, CCR4 (Homo sapiens, UniProt P51679)
# T1 construct: CEM Cells Endogenous Express CCR4; endogenous in cells; host or cells: CEM cells
# T1 sequence (P51679 1-360): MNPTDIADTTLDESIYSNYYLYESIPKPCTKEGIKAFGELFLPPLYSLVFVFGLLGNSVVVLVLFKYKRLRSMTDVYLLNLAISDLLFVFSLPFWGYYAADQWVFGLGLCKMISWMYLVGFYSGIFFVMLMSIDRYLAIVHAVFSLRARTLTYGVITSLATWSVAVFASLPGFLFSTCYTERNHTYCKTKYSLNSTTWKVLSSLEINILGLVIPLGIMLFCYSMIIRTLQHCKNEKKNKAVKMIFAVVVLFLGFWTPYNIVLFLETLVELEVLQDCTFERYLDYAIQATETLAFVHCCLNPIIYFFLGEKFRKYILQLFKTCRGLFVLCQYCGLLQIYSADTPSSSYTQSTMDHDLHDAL
# Assay: CEM cell chemotaxis (migration) assay to CCL22 (MDC) in 100% Fetal Bovine Serum (FBS)
# Type: cell-based
# Conditions: CEM cells in 100% FBS with 1% HEPEs; recombinant human CCL22 0.1 nM; 37° C. 60 minutes
# Source text: CEM Cells Endogenous Express CCR4
# A chemotaxis assay can be used to determine the efficacy of potential receptor antagonists at blocking the migration mediated through chemokine receptors, such as CCR4. This assay is routinely performed using the ChemoTX® microchamber system with a 5 μm pore-sized polycarbonate membrane.
# FBS: CEM Cells are collected by centrifugation at 400×g at room temperature, then suspended at 5 million/ml in 100% Fetal Bovine Serum (FBS) with 1% HEPEs. The compound being tested is serially diluted from a maximum final concentration of 10 μM (or an equivalent volume of its solvent (DMSO)) and is then added to the cell/buffer mixture. Separately, recombinant human CCL22 (MDC) at its EC50 concentration (0.1 nM) is placed in the lower wells of the ChemoTX® plate. The 5-μm (pore size) polycarbonate membrane was placed onto the plate, and 20 μL of the cell/compound mixture is transferred onto each well of the membrane. The plates are incubated at 37° C. for 60 minutes, after which the polycarbonate membranes are removed and 5 μl of the DNA-intercalating dye CyQUANT (Invitrogen, Carlsbad, CA) is added to the lower wells. The amount of fluorescence, corresponding to the number of migrated cells, is measured using a Spectrafluor Plus plate reader (TECAN, San Jose, CA).
row,SMILES,IC50 [nM]
1,C[C@@H](Nc1nc(N2CCN(C(=O)[C@H]3CCC(=O)N3)CC2)nc(N)c1Cl)c1ccc(Cl)cc1Cl [Example 1.084],< 100
2,C[C@@H](Nc1nc(N2CCN(C(=O)[C@H]3CCC(=O)N3)CC2)ncc1F)c1ccc(F)cc1Cl [Example 1.085],< 100
3,C[C@@H](Nc1nc(N2CCN(C(=O)[C@H]3CCC(=O)N3)CC2)ncc1F)c1ccc(Cl)cc1F [Example 1.086],< 100
4,C[C@H]1CC[C@H](C(=O)N[C@H]2CCN(c3ncc(Cl)c(N[C@H](C)c4ccc(Cl)cc4Cl)n3)C[C@@H]2F)N1 [Example 1.087],< 100
5,Cc1cc(Cl)ccc1[C@@H](C)Nc1nc(N2CCN(C(=O)[C@H]3CCC(=O)N3)CC2)ncc1Cl [Example 1.088],100 to 1000
6,Cc1cc(Cl)ccc1[C@@H](C)Nc1nc(N2CCN(C(=O)[C@H]3CCC(=O)N3)CC2)ncc1F [Example 1.089],100 to 1000
7,C[C@@H](Nc1nc(N2CC[C@H](NC(=O)[C@H]3CCCN3)[C@H](O)C2)ncc1F)c1ccc(Cl)cc1Cl [Example 1.090],< 100
8,C[C@@H](Nc1nc(N2CC[C@H](NC(=O)[C@H]3CCC(=O)N3)[C@H](O)C2)ncc1F)c1ccc(Cl)cc1Cl [Example 1.091],> 1000
9,C[C@@H](Nc1cc(C(F)(F)F)nc(N2CCN(C(=O)[C@H]3CCC(=O)N3)CC2)n1)c1ccc(Cl)cc1Cl [Example 1.092],100 to 1000
10,C[C@@H](Nc1nc(N2CC[C@H](NC(=O)[C@H]3CCC(=O)N3)[C@@H](O)C2)ncc1Cl)c1ccc(Cl)cc1Cl [Example 1.093],100 to 1000
11,C[C@@H](Nc1nc(N2CCN(C(=O)[C@H]3CCCN3)CC2)ncc1N)c1ccc(Cl)cc1Cl [Example 1.094],< 100
12,C[C@@H](Nc1nc(N2CCN(C(=O)[C@H]3CCC(=O)N3)CC2)ncc1N)c1ccc(Cl)cc1Cl [Example 1.095],< 100
13,COc1cnc(N2CCN(C(=O)[C@H]3CN(C)C(=O)N3)CC2)nc1N[C@H](C)c1ccc(Cl)cc1Cl [Example 1.096],< 100
14,Cc1nc(N2CCN(C(=O)[C@H]3CN(C)C(=O)N3)CC2)nc(N[C@H](C)c2ccc(Cl)cc2Cl)c1Cl [Example 1.097],< 100
15,C[C@@H](Nc1nc(N2CCN(C(=O)[C@H]3CCC(=O)N3)CC2)ncc1C1CC1)c1ccc(Cl)cc1Cl [Example 1.098],100 to 1000
16,C[C@@H](Nc1nc(N2CCN(C(=O)[C@H]3CCC(=O)N3)CC2)ncc1OCC(F)(F)F)c1ccc(Cl)cc1Cl [Example 1.099],100 to 1000
17,C[C@@H](Nc1nc(N2CC[C@H](NC(=O)[C@H]3CCC(=O)N3)[C@@H](O)C2)ncc1F)c1ccc(Cl)cc1Cl [Example 1.100],> 1000

row,SMILES,IC50 [nM]
1,COCc1cnc(N2CCN(C(=O)[C@H]3CCCN3)CC2)nc1N[C@H](C)c1ccc(Cl)cc1Cl [Example 1.101],< 100
2,COCc1cnc(N2CCN(C(=O)[C@H]3CCC(=O)N3)CC2)nc1N[C@H](C)c1ccc(Cl)cc1Cl [Example 1.102],< 100
3,C[C@@H](Nc1nc(N2CCN(C(=O)[C@H]3CN(C)C(=O)N3)CC2)ncc1F)c1ccc(Cl)cc1Cl [Example 1.103],< 100
4,C[C@@H]1CN(c2ncc(Cl)c(N[C@H](C)c3ccc(Cl)cc3Cl)n2)CCN1C(=O)[C@H]1CN(C)C(=O)N1 [Example 1.104],< 100
5,Cc1nc(N2CCN(C(=O)[C@H]3CCC(=O)N3)[C@H](C)C2)nc(N[C@H](C)c2ccc(Cl)cc2Cl)c1Cl [Example 1.105],< 100
6,C[C@@H](Nc1nc(N2CC[C@H](NC(=O)[C@H]3CCC(=O)N3)[C@@H](F)C2)ncc1Cl)c1ccc(Cl)cc1Cl [Example 1.106],100 to 1000
7,C[C@@H](Nc1nc(N2CC[C@H](NC(=O)[C@H]3CCCN3)[C@@H](O)C2)ncc1F)c1ccc(Cl)cc1Cl [Example 1.107],< 100
8,C[C@@H](Nc1nc(N2CCN(C(=O)[C@H]3CCCN3)CC2)ncc1OCC(F)(F)F)c1ccc(Cl)cc1Cl [Example 1.108],< 100
9,C[C@@H](Nc1nc(N2CCN(C(=O)[C@H]3CCC(=O)N3)[C@H](CO)C2)ncc1Cl)c1ccc(Cl)cc1Cl [Example 1.109],< 100
10,C[C@@H](Nc1nc(N2CCN(C(=O)[C@H]3CCC(=O)N3)[C@@H](CO)C2)ncc1Cl)c1ccc(Cl)cc1Cl [Example 1.111],< 100
11,C[C@@H]1CN(c2ncc(Cl)c(N[C@H](C)c3ccc(Cl)cc3Cl)n2)CCN1C(=O)[C@H]1CCC(=O)N1 [Example 1.112],< 100
12,C[C@@H](Nc1nc(N2CCN(C(=O)[C@H]3CCCN3)CC2)ncc1C1CC1)c1ccc(Cl)cc1Cl [Example 1.114],< 100
13,C[C@@H](Nc1ccnc(N2CCN(C(=O)[C@H]3CCCN3)CC2)n1)c1ccc(Cl)cc1Cl [Example 1.115],< 100
14,C[C@@H](Nc1ccnc(N2CCN(C(=O)[C@H]3CCC(=O)N3)CC2)n1)c1ccc(Cl)cc1Cl [Example 1.116],< 100
15,C[C@@H](Nc1nc(N2CCN(C(=O)[C@H]3CCC(=O)N3)CC2)ncc1F)c1ccc(Cl)cc1Cl [Example 1.117],< 100
16,C[C@@H](Nc1nc(N2CC[C@@H](NC(=O)[C@H]3CCCN3)[C@H](O)C2)ncc1OC(F)F)c1ccc(Cl)cc1Cl [Example 1.118],< 100

# Results, then the compound that gave them:
row,IC50 [nM],SMILES
1,< 100,C[C@H]1CC[C@H](C(=O)N[C@H]2CCN(c3ncc(OC(F)F)c(N[C@H](C)c4ccc(Cl)cc4Cl)n3)C[C@@H]2O)N1 [Example 1.119]
2,< 100,C[C@@H](Nc1nc(N2CC[C@H](NC(=O)[C@H]3CCCN3)[C@H](O)C2)ncc1OC(F)F)c1ccc(Cl)cc1Cl [Example 1.120]
3,< 100,COc1cnc(N2CCN(C(=O)C34CC(CN3)C4)CC2)nc1N[C@H](C)c1ccc(Cl)cc1Cl [Example 1.121]
4,< 100,C[C@@H](Nc1nc(N2CCN(C(=O)[C@H]3COC(=O)N3)CC2)ncc1Cl)c1ccc(Cl)cc1Cl [Example 1.122]
5,< 100,C[C@@H](Nc1nc(N2CC[C@H](NC(=O)[C@H]3CCC(C)(C)N3)[C@@H](O)C2)ncc1Cl)c1ccc(Cl)cc1Cl [Example 1.123]
6,< 100,C[C@@H](Nc1nc(N2CC[C@H](NC(=O)[C@H]3CCCCN3)[C@@H](O)C2)ncc1Cl)c1ccc(Cl)cc1Cl [Example 1.124]
7,100 to 1000,C[C@@H](Nc1nc(N2CC[C@H](NC(=O)[C@H]3COCCN3)[C@@H](O)C2)ncc1Cl)c1ccc(Cl)cc1Cl [Example 1.125]
8,100 to 1000,C[C@@H](Nc1nc(N2CCN(C(=O)C(N)(CO)CCl)CC2)ncc1Cl)c1ccc(Cl)cc1Cl (stereo partly drawn) [Example 1.126]
9,< 100,C[C@@H](Nc1nc(N2CCC(C3CCCN(CCC(N)=O)C3)CC2)ncc1Cl)c1ccc(Cl)cc1Cl (stereo partly drawn) [Example 1.127]
10,100 to 1000,C[C@@H](Nc1nc(N2CCN(C(=O)[C@@H]3COCCN3)CC2)ncc1Cl)c1ccc(Cl)cc1Cl [Example 1.128]
11,< 100,C[C@@H](Nc1nc(N2CCN(C(=O)[C@H]3CNCC(=O)N3)CC2)ncc1Cl)c1ccc(Cl)cc1Cl [Example 1.129]
12,100 to 1000,C[C@@H](Nc1nc(N2CCC(NC(=O)[C@H]3C[C@H](F)CN3)CC2)ncc1Cl)c1ccc(Cl)cc1Cl [Example 1.137]
13,100 to 1000,C[C@@H](Nc1nc(N2CCN(C(=O)[C@H]3CCCN3C(N)=O)CC2)ncc1Cl)c1ccc(Cl)cc1Cl [Example 1.138]
14,< 100,C[C@@H](Nc1nc(N2CCN(C(=O)[C@H]3CCCN3Cc3nnn[nH]3)CC2)ncc1Cl)c1ccc(Cl)cc1Cl [Example 1.139]
15,< 100,C[C@@H](Nc1nc(N2CCN(C(=O)[C@H]3C[C@@H](F)CN3)CC2)ncc1Cl)c1ccc(Cl)cc1Cl [Example 1.140]
